We go through six compounds from PMC10979747 (Journal of the American Chemical Society, 2024).

Where two headings read alike, the source gives them in different places. Numbered stars: 1 amine (or outer) side, 2 acyl side, 3 side chain; on linkers, the order of the positions; unused ones are H or OH. Bridge positions count the residues as written; N and C are the ends. Square brackets hold non-standard residues; d marks the D form. Peptide text beside a SMILES is read from it. X1 = C=C(N[*:2])c1nc(-c2nc(-c3nc(C(=O)OC)cs3)ccc2C(=O)[*:1])cs1; NMePhe(4-NO2) = CN[C@@H](Cc1ccc([N+](=O)[O-])cc1)C(=O)O; Tic(7-OH) = O=C(O)[C@@H]1Cc2ccc(O)cc2CN1; X2 = O=C(c1csc([C@H](CO)N[*:1])n1)[*:2]; Aad = N[C@@H](CCCC(=O)O)C(=O)O; NMeA = CN[C@@H](C)C(=O)O; Dhb = C/C=C(\N)C(=O)O; Dha = C=C(N)C(=O)O; Sar = CNCC(=O)O

One data set is described as follows: in vitro. The following applies: buffer or solvent, pH 7.5.
The target in another data set is MINK (Homo sapiens, UniProt Q8N4C8). The data set can be described thus: Kinase selectivity profiling (STE-1 kit, ADP-Glo readout): MINK. Type of data set: biochemical. The following applies: 1 μM thiopeptide. Here is the method: (§1) 2.9. Kinase inhibition assays with ADP-Glo
Sequence of MINK (Q8N4C8 whole entry): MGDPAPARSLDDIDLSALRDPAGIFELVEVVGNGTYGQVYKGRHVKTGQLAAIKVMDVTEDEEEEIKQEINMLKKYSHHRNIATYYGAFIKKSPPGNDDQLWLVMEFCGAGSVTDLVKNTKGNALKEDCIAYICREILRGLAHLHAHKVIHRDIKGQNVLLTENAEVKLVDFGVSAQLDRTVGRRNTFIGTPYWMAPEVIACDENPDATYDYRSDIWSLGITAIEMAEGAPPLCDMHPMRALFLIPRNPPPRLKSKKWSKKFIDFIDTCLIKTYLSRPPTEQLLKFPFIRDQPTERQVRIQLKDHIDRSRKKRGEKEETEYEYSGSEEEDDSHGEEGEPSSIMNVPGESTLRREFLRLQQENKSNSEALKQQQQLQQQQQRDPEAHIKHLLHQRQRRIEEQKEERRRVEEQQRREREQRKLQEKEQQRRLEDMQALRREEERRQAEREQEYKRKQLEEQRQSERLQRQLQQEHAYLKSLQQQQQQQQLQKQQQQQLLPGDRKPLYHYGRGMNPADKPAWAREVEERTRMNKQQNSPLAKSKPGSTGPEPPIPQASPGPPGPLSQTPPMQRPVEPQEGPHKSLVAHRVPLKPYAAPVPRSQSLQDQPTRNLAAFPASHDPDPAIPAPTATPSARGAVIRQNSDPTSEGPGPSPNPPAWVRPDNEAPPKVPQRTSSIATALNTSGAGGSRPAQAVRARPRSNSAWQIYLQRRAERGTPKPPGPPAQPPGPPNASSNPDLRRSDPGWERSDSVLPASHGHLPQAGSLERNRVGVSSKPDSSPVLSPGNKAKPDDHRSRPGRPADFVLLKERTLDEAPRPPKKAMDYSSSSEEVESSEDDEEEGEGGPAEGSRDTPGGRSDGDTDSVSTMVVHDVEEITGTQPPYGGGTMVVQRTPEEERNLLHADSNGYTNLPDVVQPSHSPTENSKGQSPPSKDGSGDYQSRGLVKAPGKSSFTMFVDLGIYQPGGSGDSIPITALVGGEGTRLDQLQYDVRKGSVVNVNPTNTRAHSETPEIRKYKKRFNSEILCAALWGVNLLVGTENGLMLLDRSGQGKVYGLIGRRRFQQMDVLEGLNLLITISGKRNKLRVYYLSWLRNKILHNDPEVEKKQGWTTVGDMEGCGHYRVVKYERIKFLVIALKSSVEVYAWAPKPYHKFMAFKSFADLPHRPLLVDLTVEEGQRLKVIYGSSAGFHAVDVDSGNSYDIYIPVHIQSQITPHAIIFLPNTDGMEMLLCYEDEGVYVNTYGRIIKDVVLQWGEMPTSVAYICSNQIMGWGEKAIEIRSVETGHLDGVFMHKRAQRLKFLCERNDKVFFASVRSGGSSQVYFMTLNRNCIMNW
(§2) The ADP-Glo assay system was purchased from Promega. The kinase reaction buffer contained 50 mM Tris (pH 7.5), 10 mM MgCl2 and 0.01% (v/v) triton X-100. […]
(§3) The reactions were stopped by the addition of ADP -Glo reagent (1 volume), and the luminescent signal was developed following the manufacturer’s instructions. […]
(§4) Kinase selectivity profiling. A STE-1 kinase selectivity profiling kit from Promega was utilized to assay the compounds. The experiment was conducted following the manufacturer’s instructions, and the signal was developed using the ADP-Glo assay system as described above. All measurements were performed in triplicate. After background correction, the kinase activities were normalized to a no inhibitor control , and percent remaining activity values were calculated accordingly. […]

In data set [1] the target is T1, TNIK (Homo sapiens, UniProt Q9UKE5). The data set can be described thus: ADP-Glo kinase inhibition assay. The following applies: 0.5 nM TNIK, 25 µM ATP, 15 µM MSTtide, 4-parameter logistic fit; for IC50: read-out: ADP-Glo IC50 against TNIK. The arrangement: Biotinylated TNIK (kinase domain, amino acids 1-314;); biotin (biotinylated protein); purchased Carna Biosciences (Kobe, Japan). Type of data set: biochemical. Here is the method:
as §1
Target sequence in this assay (Q9UKE5 1-314): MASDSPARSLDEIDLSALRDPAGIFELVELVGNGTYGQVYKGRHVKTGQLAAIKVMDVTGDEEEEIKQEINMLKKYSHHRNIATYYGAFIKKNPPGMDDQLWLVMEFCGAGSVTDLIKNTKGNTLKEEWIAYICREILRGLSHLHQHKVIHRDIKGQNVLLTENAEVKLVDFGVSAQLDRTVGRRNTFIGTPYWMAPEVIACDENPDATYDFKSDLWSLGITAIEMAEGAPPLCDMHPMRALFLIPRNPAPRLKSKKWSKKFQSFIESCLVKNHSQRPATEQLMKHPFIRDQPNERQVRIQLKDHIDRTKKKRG
The ADP-Glo assay system was purchased from Promega. The kinase reaction buffer contained 50 mM Tris (pH 7.5), 10 mM MgCl2 and 0.01% (v/v) triton X-100. TNIK (1.25 nM) was incubated with various concentrations of analyte inhibitors in kinase reaction buffer at 25 °C for 10 min. After, the reactions were initiated by the addition of ATP and substrate […]
peptide (MSTtide, sequence: NH2-NKGYNTLRRKK-CONH2;ref 14 synthesized using the standard Fmoc SPPS techniques). The final mixtures containing 0.5 nM TNIK, 25 µM ATP, 15 µM MSTtide and variable concentration of the inhibitors were incubated at 25 °C for 30 min. The reactions were stopped by the addition of ADP -Glo reagent (1 volume), and the luminescent signal was developed following the manufacturer’s instructions. Luminesce was recorded on a Tecan M1000 PRO microplate reader (Tecan Group) with 1 s acquisition time and no signal attenuation. TNIK kinase activity was normalized to a no inhibitor control, and […]
values to the standard 4-parameter logistic curve model. […]

The next data set relates to T2, trypsin.
T2 construct: purchased Thermo Fisher
The data set can be described thus: Stability to agarose-immobilized trypsin (LC/MS). Type of data set: in vitro ADME. Conditions: isolated enzyme trypsin, pH 7.9. As to the method: 2.10. Thiopeptide metabolic stability experiments
Stability to trypsin. To a solution of the analyte thiopeptide (15 µM) and the internal standard peptide (5 µM NH2-PEG5-wstndwdtnd-PEG5-CONH2;ref 16 lower case encoding is for D-amino acids; synthesized using the standard Fmoc SPPS techniques) in digestion buffer [50 mM tris, 100 mM NaCl, 10 mM EDTA, pH 7.9] was added agarose -immobilized TPCK-treated trypsin (Thermo Fisher; 1 µL of resin slurry; 100 µL final reaction volume ) that was previously washed with digestion buffer thrice. The mixture was agitated at 22 °C, and at various timepoints (0.5, 1, 2, 4, and 6 h) aliquots were withdrawn and quenched with 14 volumes of water/acetonitrile mixture [30: 70 (v/v) water: acetonitr ile with 0.1% (v/v) TFA]. […]

Data set [2] has as its target T1, TNIK. The data set can be described thus: Surface plasmon resonance, binding of thiopeptides to immobilized biotinylated TNIK (single-cycle, then multicycle kinetics). Also noted: Biotinylated TNIK (kinase domain, amino acids 1-314;); biotin (biotinylated protein); purchased Carna Biosciences (Kobe, Japan). As to the method:
2.8. Surface plasmon resonance
In the initial experiment, binding affinities between the thiopeptides and TNIK were measured with a Biacore T200 instrument (GE Healthcare) at 25 °C. The assay buffer contained 50 mM Tris (pH 7.5), 150 mM NaCl, 10 mM MgCl2, 0.01% (v/v) tween-20 and 0.1% (v/v) DMSO. For wTP3, the assay buffer additionally contained ATP (f.c.: 1 mM).
Biotinylated TNIK was immobilized on a Biacore CAP chip (GE Healthcare) to a surface density of 950-1200 response units following the standard immobilization protocols provided by the manufacturer. The interaction sensorgrams were measured as single-cycle kinetics performed with five concentrations of the ligand sequentially flown over the chip at a flow rate of 15 μL/min allowing for 20 or 30 s association and 70 or 60 s for dissociation between the steps. The final dissociation step was allowed to proceed for 180 s. […]
was repeated in triplicate on a Biacore 8K instrument (GE Healthcare) using a multi cycle kinetics format. The experimental details were as above, except ATP was not added to the buffer for wTP3. Kinetic parameters and affinities of the interaction were determined assuming the standard 1:1 binding model using the Biacore software (GE Healthcare).
Reported KD values were calculated from the average measured association and dissociation rates (Table S5).
Target sequence in this assay (Q9UKE5 1-314): as above

A short description of data set [3]: human serum (0.33 volumes; Cosmo Bio) added to thiopeptide and internal standard in TBS. Conditions: 37 °C, up to various timepoints, time axis of Fig. 5c runs to 30 h.
For data set [4], the system named is agarose-immobilized TPCK-treated trypsin (Thermo Fisher). The data set can be described thus: agarose-immobilized TPCK-treated trypsin in digestion buffer [50 mM tris, 100 mM NaCl, 10 mM EDTA, pH 7.9]. Conditions: 22 °C, up to 6 h.
Data set [5] concerns HCT116 colon carcinoma cells. The data set can be described thus: Cell viability assay (Cell Counting Kit-8). Conditions: for cytotoxicity (cell viability) after 24 h incubation: thiopeptide acetate salts.
Method: HCT116 cells were cultured in McCoy's 5A (Modified) Medium supplemented with 1% (v/v)
penicillin-streptomycin and 10% (v/v) fetal bovine serum (all from Thermo Fisher) in a
All assays were conducted using thiopeptide acetate salts prepared as follows. Strong
anion resin (AG® 1–X8 acetate form, analytical grade, quaternary ammonium 10~50 mg)
was first washed three times with 1.6 N acetic acid and three times with 0.16 N acetic acid.
Then, a thiopeptide solution ( 0.5~3 mg, dissolved in water/ acetonitrile [1:1, v/v; ~1 ml]) was
added to the resin. After 2 h on a rotary shaker, the peptide-resin suspension was ﬁltered
and the liquid phase was recovered. The resin was washed twice with water/acetonitrile (1:1,
v/v; 0.5 ml/wash), and the solutions were combined.
Cell viability assays. HCT116 cells were grown to 40–50% confluency in 96-well plates
that the final DMSO concentration is 1% (v/v) for every sample. In the first experiment (Fig.
S44a), the cells were grown for 24 h, and the incubation time was further extended to 48 h
In both cases, the cell viability was
directly assayed with Cell Counting Kit-8 (Dojindo) following the manufacturer’s instructions
allowing 4 h to develop the signal. Absorbance at 450 nm was measured on a Tecan M1000
PRO microplate reader (Tecan Group), and live cell counts were normalized to the DMSO
control. All experiments were performed in triplicate, and in most cases, replicated at least
once to analogous outcomes.
A short description of data set [6]: Serum stability assay (LC/MS against internal standard). Conditions: human, human serum diluted in TBS, pH 7.6.
Method: The ratio of areas under the peak for the intact analyte over the internal standard (EIC
chromatograms generated with m/z ± 3 cutoff values) were used to calculate the extent of
analyte degradation. Thiopeptide half-life values were obtained from non-linear regression
(scipy)15 of experimentally measured values to the standard first order kinetic decomposition
Serum stability assay. To a solution of analyte thiopeptide (13.3 µM) and the internal
standard peptide in TBS [5 µM; buffer: 50 mM Tris (pH 7.6), 150 mM NaCl] human serum
(0.33 volumes; Cosmo Bio) was added on ice. The solutions were mixed well and transferred to a 37 °C thermostat. At various timepoints, aliquots were withdrawn and quenched with 2.3 volumes of methanol containing 30 mM iodoacetamide. The mixtures were incubated on
ice for 15 min and then at 25 °C for 30 min. The samples were then centrifuged (15300 g for
5 min), and the supernatant (0.5 µL) was analyzed by LC/MS (section 2.5) using method 6
1 – 10 min 1 – 81% B, linear ramp
Data analysis was conducted as for the trypsin digestion assays.
The nature of data set [7]: Stability to glutathione (LC/MS). Conditions: for half-life at 10 µM: 5 mM glutathione in HEPES buffer, pH 7.5.
Method: (§5) Stability to glutathione. To a freshly prepared solution of glutathione (5 mM) in stability
(§6) buffer [50 mM HEPES (pH 7.5), 100 mM NaCl] was added a solution of analyte (1.5 mM
(§7) thiopeptide in DMSO; f. c.: 10 µM). The contents were mixed and transferred to a 37 °C
(§8) thermostat. At various time points (0.5, 1, 2, 4, 6, and 10 h) aliquots were withdrawn and
(§9) quenched with 2 volumes of methanol containing 30 mM iodoacetamide. The samples were
(§10) analyzed by LC/MS (0.3 µL; section 2.6) using method 3. Areas under the peak curve for all
(§11) thiopeptide-derived products in the sample (TIC chromatograms) were used to calculate
(§12) fractions of intact analyte. Thiopeptide half-life values were obtained from non-linear
(§13) regression (scipy)15 of experimentally measured values to the pseudo-first order
(§14) approximation for the reaction kinetics which can be used since [glutathione] >> [analyte].
Data set [8] concerns the target T1, TNIK. The data set can be described thus: Kinase selectivity profiling (STE-1 kit, ADP-Glo readout): TNIK. Type of data set: biochemical. Conditions: 10 μM thiopeptide. As to the method:
as §1, §2, §3, §4
Target sequence in this assay (Q9UKE5 whole entry, the tested form may be a part): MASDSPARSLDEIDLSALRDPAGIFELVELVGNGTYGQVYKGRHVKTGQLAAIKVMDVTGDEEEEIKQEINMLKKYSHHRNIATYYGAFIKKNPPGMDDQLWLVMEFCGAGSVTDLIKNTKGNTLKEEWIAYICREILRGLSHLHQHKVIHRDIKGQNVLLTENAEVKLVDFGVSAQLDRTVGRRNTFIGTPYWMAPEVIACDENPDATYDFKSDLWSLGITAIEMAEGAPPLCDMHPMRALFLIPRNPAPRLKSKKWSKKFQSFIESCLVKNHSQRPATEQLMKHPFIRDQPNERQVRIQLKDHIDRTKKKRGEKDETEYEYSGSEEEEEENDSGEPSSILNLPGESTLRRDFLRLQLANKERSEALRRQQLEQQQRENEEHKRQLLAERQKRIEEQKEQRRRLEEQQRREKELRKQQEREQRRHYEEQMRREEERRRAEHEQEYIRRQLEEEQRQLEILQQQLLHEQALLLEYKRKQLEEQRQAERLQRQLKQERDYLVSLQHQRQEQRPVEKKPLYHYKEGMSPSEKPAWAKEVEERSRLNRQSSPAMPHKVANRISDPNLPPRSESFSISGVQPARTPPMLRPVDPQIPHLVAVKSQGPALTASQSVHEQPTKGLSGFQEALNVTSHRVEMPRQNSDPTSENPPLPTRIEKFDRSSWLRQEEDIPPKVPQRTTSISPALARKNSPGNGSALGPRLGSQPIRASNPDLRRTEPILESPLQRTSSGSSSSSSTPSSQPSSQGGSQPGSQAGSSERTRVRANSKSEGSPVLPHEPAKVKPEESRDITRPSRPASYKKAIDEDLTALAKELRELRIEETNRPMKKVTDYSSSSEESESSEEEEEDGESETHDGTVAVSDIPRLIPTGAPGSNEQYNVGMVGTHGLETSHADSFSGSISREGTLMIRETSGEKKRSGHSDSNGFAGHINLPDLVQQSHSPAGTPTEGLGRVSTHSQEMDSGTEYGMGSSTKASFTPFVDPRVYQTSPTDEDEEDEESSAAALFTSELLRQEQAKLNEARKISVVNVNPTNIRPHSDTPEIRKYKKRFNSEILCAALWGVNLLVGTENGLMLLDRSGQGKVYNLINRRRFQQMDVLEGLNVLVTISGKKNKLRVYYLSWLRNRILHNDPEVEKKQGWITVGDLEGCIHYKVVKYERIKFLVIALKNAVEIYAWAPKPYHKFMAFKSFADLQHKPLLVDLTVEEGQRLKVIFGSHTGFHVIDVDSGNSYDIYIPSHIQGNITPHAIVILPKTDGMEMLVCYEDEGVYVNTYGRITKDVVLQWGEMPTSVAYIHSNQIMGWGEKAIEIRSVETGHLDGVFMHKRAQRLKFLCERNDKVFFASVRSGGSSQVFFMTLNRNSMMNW

[9] abbreviates: SPR kinetic data, binding to immobilized TNIK.
The mark [10] stands for this setting: SPR kinetic data, binding to immobilized TNIK, read-out: KD.
The mark [11] stands for this setting: average from three multicycle kinetic experiments, 1:1 binding model, 25 °C.

Method for in vitro: as §5, §6, §7, §8, §9, §10, §11, §12, §13, §14

Regarding `C=C1NC(=O)[C@H](CC(C)C)NC(=O)[C@H](CC(N)=O)NC(=O)[C@H](CO)NC(=O)[C@H](CCCNC(=N)N)NC(=O)[C@H](CCCNC(=N)N)NC(=O)CN(C)C(=O)[C@H](C)N(C)C(=O)[C@H](CC(C)C)NC(=O)[C@H](CCCNC(=N)N)NC(=O)[C@@H]2CCCN2C(=O)[C@@H]2Cc3ccc(O)cc3CN2C(=O)[C@H]([C@@H](C)O)NC(=O)[C@H](Cc2c[nH]c3ccccc23)NC(=O)c2ccc(-c3nc(C(=O)OC)cs3)nc2-c2csc1n2` [hTP15] (WT[Tic(7-OH)]PRL[NMeA][Sar]RRSNL; linker N-C via X1), the half-life at 10 µM in “in vitro” was 101 ± 7 h. On MINK, the “inhibition of MINK” value is listed as 60%. Besides, on TNIK [1], the “ADP-Glo IC50 against TNIK” value is “sub-μM” and the 50% inhibitory concentration (IC50) was 150 ± 10 nM. The compound also gave a half-life at 15 µM in the data set on trypsin of 1.4 ± 0.1 h. At TNIK [2] (setting [9]), this compound displayed a koff of 0.0216 s⁻¹ and a kon of 4.78e+06 M⁻¹ s⁻¹. Further, on TNIK [2] (setting [10]), the Kd worked out at 4.5 nM. In addition, the “KD (binding affinity to TNIK)” value on TNIK [2] (setting [11]) is given as “single-digit”.

As to WLRTgRaSTfTG, the fragment found entry in data set [3] is recorded as “demethylated but otherwise undigested thiopeptides”.

For the compound WSCNgSSgfyTA, in [4], the not cleaved result is recorded as “did not degrade (6 h); completely stable; τ1/2 >100 h”. Moreover, the fragment found result in data set [3] is on record as “demethylated but otherwise undigested thiopeptides”.

Consider `C=C1NC(=O)CN(C)C(=O)[C@H](CC(N)=O)NC(=O)c2csc(n2)[C@H](CO)NC(=O)[C@H](Cc2c[nH]c3ccccc23)NC(=O)[C@H](Cc2c[nH]c3ccccc23)NC(=O)c2ccc(-c3nc(C(=O)OC)cs3)nc2-c2csc(n2)C(=C)NC(=O)[C@H](C)NC(=O)/C(=C/C)NC(=O)[C@@H]2Cc3ccc(O)cc3CN2C(=O)[C@H](Cc2ccc([N+](=O)[O-])cc2)N(C)C(=O)CN(C)C(=O)C(=C)NC1=O` [wTP12] (WW[X2]N[Sar][Dha][Dha][Sar][NMePhe(4-NO2)][Tic(7-OH)][Dhb]A; linker N-C via X1), for which, in data set [5] (10 μM), the “cytotoxicity (cell viability) after 24 h incubation” value (shortened to “cytotoxicity (cell viability)”) is “inactive”. Also, the half-life at 10 µM in data set [6] is 56.3 ± 6.4 h; in data set [7], 16.4 ± 2 h. Besides, the IC50 at TNIK [1] is 1270 ± 90 nM. The compound also showed a half-life at 15 µM in the data set on trypsin of over 100 h. Moreover, the koff at TNIK [2] (setting [9]) was 0.0597 s⁻¹. This compound also gave a kon at TNIK [2] (setting [9]) of 308000 M⁻¹ s⁻¹. In addition, the Kd at TNIK [2] (setting [10]) is 194 nM.

Consider `C=C1NC(=O)[C@H](Cc2ccc([N+](=O)[O-])cc2)N(C)C(=O)[C@H]([C@@H](C)O)NC(=O)C(=C)NC(=O)C(=C)NC(=O)[C@@H]2Cc3ccc(O)cc3CN2C(=O)CN(C)C(=O)C(=C)NC(=O)CN(C)C(=O)[C@H](CCCC(N)=O)NC(=O)[C@H](Cc2c[nH]c3ccccc23)NC(=O)[C@H](Cc2c[nH]c3ccccc23)NC(=O)c2ccc(-c3nc(C(=O)OC)cs3)nc2-c2csc(n2)C(=C)NC(=O)CNC1=O` [wTP3] (WW[Aad](NH2)[Sar][Dha][Sar][Tic(7-OH)][Dha][Dha]T[NMePhe(4-NO2)][Dha]G; linker N-C via X1), for which the “cytotoxicity (cell viability)” value in data set [5] (8 μM) was “inactive”. In data set [6], this compound had a half-life at 10 µM of 17.2 ± 1.1 h. In data set [7], the half-life at 10 µM was 20.6 ± 2 h. Besides, the “metabolic stability, τ1/2, glutathione” value in data set [7] (5 mM glutathione, pH 7.5, 37 °C) was found to be 20.6 h. Moreover, at TNIK [1], the “ADP-Glo IC50 against TNIK” value is listed as “no measurable binding/inhibition”. In the data set with trypsin, the half-life at 15 µM is over 100 h. For the same compound, at TNIK [2] (setting [9]), the koff worked out at 0.00579 s⁻¹ and the kon came to 1.37e+06 M⁻¹ s⁻¹. On TNIK [2] (setting [10]), the Kd amounted to 4.2 nM. At TNIK [2] (setting [11]), the “KD (binding affinity to TNIK)” value is “single-digit”.

With `C=C1NC(=O)[C@H](C)N(C)C(=O)[C@H](CCCNC(=N)N)NC(=O)CN(C)C(=O)/C(=C/C)NC(=O)[C@H](CCCNC(=N)N)NC(=O)[C@H](CC(C)C)NC(=O)[C@H](Cc2c[nH]c3ccccc23)NC(=O)[C@H](Cc2c[nH]c3ccccc23)NC(=O)c2ccc(-c3nc(C(=O)OC)cs3)nc2-c2csc(n2)C(=C)NC(=O)CNC(=O)/C(=C/C)NC(=O)[C@H](Cc2ccc([N+](=O)[O-])cc2)N(C)C(=O)[C@H]([C@@H](C)O)NC1=O` [hTP8] (WWLR[Dhb][Sar]R[NMeA][Dha]T[NMePhe(4-NO2)][Dhb]G; linker N-C via X1), the “cytotoxicity (cell viability)” value in [5] (10 μM) is reported as “more cytotoxic than a small molecule control, NCB0846”. For the same compound, the “concentrations at which strongly cytotoxic” value in data set [5] (dose-dependent assay) was “above 5 µM”. Further, the IC50 in data set [5] (read-out: IC50, cell viability, dose-dependent 48 h incubation) turned out to be 7200 nM; at TNIK [1], 1180 ± 160 nM. In the data set “in vitro”, this compound gave a half-life at 10 µM of 6.4 ± 0.1 h. Besides, the “suppression of TNIK activity” value on TNIK [8] worked out at 94%. This compound had a half-life at 15 µM with trypsin of 4.9 ± 0.6 h. The compound further returned an off-rate constant (koff) on TNIK [2] (setting [9]) of 0.00256 s⁻¹. On TNIK [2] (setting [9]), this compound gave an on-rate (kon) of 1.21e+06 M⁻¹ s⁻¹. Further, the “KD (binding affinity to TNIK)” value on TNIK [2] (setting [11]) is “single-digit”. Besides, the Kd at TNIK [2] (average from three multicycle kinetic experiments, 1:1 binding model, 25 °C, read-out: KD (binding affinity to TNIK)) was 2.1 nM.
